In ChEMBL document CHEMBL2331282, “9-[2-(R)-(Phosphonomethoxy)propyl]-2,6-diaminopurine (R)-PMPDAP and its prodrugs: optimized preparation, including identification of by-products formed, and antiviral evaluation in vitro” (Bioorg Med Chem, 2013):

tested on: Vaccinia virus; assay: Antiviral activity against Vaccinia virus infected in human HEL cells assessed as reduction of virus-induced cytopathogenicity; format: functional, organism-based; settings: Orthopoxvirus vaccinia

SMILES | EC50 [µg/mL]
C[C@@H](O)CNc1nc(N)c2ncn(C[C@@H](C)O)c2n1 | > 100
C[C@@H](O)CNc1nc(N)nc2c1ncn2C[C@@H](C)O | > 100
C[C@H](Cn1cnc2c(NCP(=O)(O)O)nc(N)nc21)OCP(=O)(O)O | > 100
